From PubChem BioAssay AID330 (DTP/NCI, 2004)
“And” between values parts separate entries of the source, which are not always exact repeats. Equal entries are not always repeated. Inconclusive results and toxic doses are left out. Rule for the calls: active = survival T/C of 150% or more; inactive = T/C below 125% in these data.

Tested on: P388 leukemia ip, CD2F1 mice, survival T/C
Assay: NCI In Vivo Anticancer Drug Screen. Data for tumor model P388 Leukemia (intraperitoneal) in CD2F1 (CDF1) mice
Details: endpoint: median survival time, higher = longer survival
How it was run: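 Mice carrying the transplanted tumor received test compound or vehicle. Survival was recorded in each group, and the value is the treated-group measurement divided by that of the vehicle-treated control group.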

[1] = dose: 60.0 mg/kg/injection, schedule: Q01DX005 (ip), vehicle: Klucel (hydroxypropylcellulose) (HPC)
[2] = dose: 120.0 mg/kg/injection, schedule: Q01DX005 (ip), vehicle: Klucel (hydroxypropylcellulose) (HPC)
[3] = dose: 240.0 mg/kg/injection, schedule: Q01DX005 (ip), vehicle: Klucel (hydroxypropylcellulose) (HPC)
[4] = dose: 50.0 mg/kg/injection, schedule: Q01DX005 (ip), vehicle: saline with Tween-80
[5] = dose: 100.0 mg/kg/injection, schedule: Q01DX005 (ip), vehicle: saline with Tween-80
[6] = dose: 200.0 mg/kg/injection, schedule: Q01DX005 (ip), vehicle: saline with Tween-80
[7] = dose: 50.0 mg/kg/injection, schedule: Q01DX005 (ip), vehicle: saline
[8] = dose: 100.0 mg/kg/injection, schedule: Q01DX005 (ip), vehicle: saline
[9] = dose: 200.0 mg/kg/injection, schedule: Q01DX005 (ip), vehicle: saline
[10] = dose: 25.0 mg/kg/injection, schedule: Q01DX005 (ip), vehicle: Klucel (hydroxypropylcellulose) (HPC)
[11] = dose: 60.0 mg/kg/injection, schedule: Q01DX005 (ip), vehicle: saline with Tween-80
[12] = dose: 120.0 mg/kg/injection, schedule: Q01DX005 (ip), vehicle: saline with Tween-80
[13] = dose: 100.0 mg/kg/injection, schedule: Q04DX003 (ip), vehicle: saline
[14] = dose: 240.0 mg/kg/injection, schedule: Q01DX005 (ip), vehicle: saline with Tween-80
[15] = dose: 50.0 mg/kg/injection, schedule: Q01DX005 (ip), vehicle: Klucel (hydroxypropylcellulose) (HPC)
[16] = dose: 100.0 mg/kg/injection, schedule: Q01DX005 (ip), vehicle: Klucel (hydroxypropylcellulose) (HPC)

Measured: T/C

O=S(=O)(c1ccc(Cl)cc1)N(CCCCCN(S(=O)(=O)c1ccc(Cl)cc1)S(=O)(=O)c1ccc(Cl)cc1)S(=O)(=O)c1ccc(Cl)cc1
inactive: dose: 30.0 mg/kg/injection, schedule: Q01DX005 (ip), vehicle: Klucel (hydroxypropylcellulose) (HPC) 94 % of control | [1] 105 % of control | [2] 96 % of control | [3] 93 % of control

CCN(CC)CCN(CC)c1ccccc1
inactive: [4] 105 % of control | [5] 102 % of control

CCOC(=O)C(=C(SC)SC)[n+]1ccc(C)cc1
inactive: dose: 12.5 mg/kg/injection, schedule: Q04DX002 (ip), vehicle: saline with Tween-80 104 % of control

ON(C(=S)Nc1ccc(Cl)cc1)c1ccccc1
inactive: dose: 12.5 mg/kg/injection, schedule: Q01DX005 (ip), vehicle: saline with Tween-80 104 % of control | dose: 25.0 mg/kg/injection, schedule: Q01DX005 (ip), vehicle: saline with Tween-80 100 % of control | [4] 95 % of control and 98 % of control | [5] 94 % of control | [6] 97 % of control

C[C@]12CC[C@H]3[C@@H](CC[C@H]4N(CCCl)CCC[C@]34C)[C@@H]1CC[C@@H]2O
inactive: dose: 25.0 mg/kg/injection, schedule: Q01DX001 (ip), vehicle: saline 108 % of control

O=C(NNC(O)C(F)(F)F)c1ccccc1F (stereo unspecified)
inactive: dose: 100.0 mg/kg/injection, schedule: Q04DX002 (ip), vehicle: Klucel (hydroxypropylcellulose) (HPC) 99 % of control

COC(=O)Nc1ccc(NC(=O)OC)c2c1C(=O)c1ccccc1C2=O
inactive: [7] 95 % of control | [8] 95 % of control | [9] 88 % of control

C1CC[N-]CC1.C1CC[N-]CC1.[Cl][Pt+2][Cl]
inactive: [10] 119 % of control and 120 % of control

Cc1ccc(C=C(C#N)C#N)o1
inactive: [11] 102 % of control | [12] 105 % of control

CC(C)(C)C(=O)Oc1ccc(N=C(N)N)cc1
inactive: [7] 102 % of control | [8] 104 % of control | [9] 105 % of control

COc1ccc(CSC(=S)Nc2cccc(C(F)(F)F)c2)cc1
inactive: dose: 50.0 mg/kg/injection, schedule: Q01DX009 (ip), vehicle: saline 97 % of control | dose: 50.0 mg/kg/injection, schedule: Q01DX009 (ip), vehicle: suspension in saline 90 % of control | dose: 100.0 mg/kg/injection, schedule: Q01DX009 (ip), vehicle: saline 101 % of control | dose: 200.0 mg/kg/injection, schedule: Q01DX009 (ip), vehicle: saline 118 % of control | dose: 200.0 mg/kg/injection, schedule: Q01DX009 (ip), vehicle: suspension in saline 99 % of control

O=C(c1ccccc1)C(c1ccccc1)C(Cl)c1ccccc1 (stereo unspecified)
inactive: dose: 50.0 mg/kg/injection, schedule: Q01DX009 (ip), vehicle: Klucel (hydroxypropylcellulose) (HPC) 100 % of control | dose: 100.0 mg/kg/injection, schedule: Q01DX009 (ip), vehicle: Klucel (hydroxypropylcellulose) (HPC) 97 % of control | dose: 100.0 mg/kg/injection, schedule: Q04DX003 (ip), vehicle: Klucel (hydroxypropylcellulose) (HPC) 98 % of control | dose: 200.0 mg/kg/injection, schedule: Q01DX009 (ip), vehicle: Klucel (hydroxypropylcellulose) (HPC) 99 % of control | dose: 200.0 mg/kg/injection, schedule: Q04DX003 (ip), vehicle: Klucel (hydroxypropylcellulose) (HPC) 100 % of control | dose: 400.0 mg/kg/injection, schedule: Q04DX003 (ip), vehicle: Klucel (hydroxypropylcellulose) (HPC) 100 % of control

CSC(SC)=C(C#N)c1nc(SC)c(C#N)c(SC)n1
inactive: dose: 50.0 mg/kg/injection, schedule: Q04DX003 (ip), vehicle: saline 102 % of control | [13] 112 % of control

COC12CC(=O)C(C(C)=O)=C(O)C1(C)c1c(O)c(C)c(O)c(C(C)=O)c1O2 (stereo unspecified)
inactive: dose: 6.25 mg/kg/injection, schedule: Q01DX009 (ip), vehicle: gum acacia 105 % of control and 108 % of control | dose: 12.5 mg/kg/injection, schedule: Q01DX009 (ip), vehicle: gum acacia 109 % of control and 111 % of control | dose: 25.0 mg/kg/injection, schedule: Q01DX009 (ip), vehicle: gum acacia 111 % of control and 115 % of control | dose: 50.0 mg/kg/injection, schedule: Q01DX009 (ip), vehicle: gum acacia 107 % of control and 113 % of control

Cc1cc2nc(CC(=O)c3cccnc3)c(=O)[nH]c2cc1C
inactive: dose: 7.5 mg/kg/injection, schedule: Q01DX005 (ip), vehicle: saline with Tween-80 100 % of control | dose: 15.0 mg/kg/injection, schedule: Q01DX005 (ip), vehicle: saline with Tween-80 94 % of control | dose: 30.0 mg/kg/injection, schedule: Q01DX005 (ip), vehicle: saline with Tween-80 92 % of control | [14] 88 % of control

C=C(CN(C)C)C(=O)c1ccccc1
inactive: dose: 0.94 mg/kg/injection, schedule: Q01DX005 (ip), vehicle: saline 122 % of control | dose: 1.25 mg/kg/injection, schedule: Q01DX005 (ip), vehicle: saline 112 % of control | dose: 1.88 mg/kg/injection, schedule: Q01DX005 (ip), vehicle: saline 112 % of control | dose: 2.5 mg/kg/injection, schedule: Q01DX005 (ip), vehicle: saline 112 % of control | dose: 3.75 mg/kg/injection, schedule: Q01DX005 (ip), vehicle: saline 99 % of control and 97 % of control | dose: 5.0 mg/kg/injection, schedule: Q01DX005 (ip), vehicle: saline 98 % of control and 104 % of control

COCc1cccnc1
inactive: [10] 97 % of control | [15] 93 % of control | [16] 88 % of control

COc1cc(O)c(C(C)c2ccccc2)cc1N=O (stereo unspecified)
inactive: [4] 92 % of control | [5] 87 % of control | [6] 92 % of control

CCCCCCCCOC(=O)CP(=O)(O)O
inactive: dose: 50.0 mg/kg/injection, schedule: Q01DX009 (ip), vehicle: saline with Tween-80 100 % of control | dose: 100.0 mg/kg/injection, schedule: Q01DX009 (ip), vehicle: saline with Tween-80 96 % of control

NC(=O)C(CCO)NC(=O)OCc1ccccc1 (stereo unspecified)
inactive: dose: 4.0 mg/kg/injection, schedule: Q01DX009 (ip), vehicle: other 101 % of control | dose: 8.0 mg/kg/injection, schedule: Q01DX009 (ip), vehicle: other 106 % of control | dose: 16.0 mg/kg/injection, schedule: Q01DX009 (ip), vehicle: other 101 % of control | dose: 32.0 mg/kg/injection, schedule: Q01DX009 (ip), vehicle: other 101 % of control and 105 % of control | dose: 64.0 mg/kg/injection, schedule: Q01DX009 (ip), vehicle: other 97 % of control | dose: 128.0 mg/kg/injection, schedule: Q01DX009 (ip), vehicle: other 88 % of control | dose: 256.0 mg/kg/injection, schedule: Q01DX009 (ip), vehicle: other 99 % of control

O=C(O)/C=C(/C(=O)O)C12CCN3CC4=CCOC5CC(=O)NC1C5C4CC32 (stereo unspecified)
inactive: [1] 97 % of control | [2] 106 % of control | [3] 110 % of control

CC(C(=O)c1cc(Cl)cc(Cl)c1O)C1(O)C(=O)Nc2ccccc21 (stereo unspecified)
inactive: [11] 107 % of control | [12] 100 % of control | [14] 99 % of control

CCOC(=O)C1(c2ccccc2)SC(C(=O)OCC)(c2ccccc2)S1 (stereo unspecified)
inactive: [13] 112 % of control | dose: 200.0 mg/kg/injection, schedule: Q04DX003 (ip), vehicle: saline 107 % of control | dose: 400.0 mg/kg/injection, schedule: Q04DX003 (ip), vehicle: saline 103 % of control

CN=C(Nc1ccccn1)c1ccc(NC(=O)c2ccc(C(=O)Nc3ccc(C(=NC)Nc4ccccn4)cc3)cc2)cc1
inactive: [15] 107 % of control | [16] 110 % of control
